{"source": "patent US9676732B2", "about": "“Ethynyl derivatives” (Hoffmann-La Roche Inc., priority 2013, dated 2017)", "key": {"[1]": {"tested_on": "mice treated with 1-Methyl-4-Phenyl-1,2,3,6-Tetrahydropyridine (MPTP)", "details": "cited from earlier work"}, "[2]": {"tested_on": "EPM in mice", "details": "preclinical model of anxiety; cited from earlier work"}, "[3]": {"tested_on": "EPM in rats", "details": "cited from earlier work"}, "[4]": {"tested_on": "marble burying test in mice", "details": "preclinical model of anxiety; cited from earlier work"}, "[5]": {"tested_on": "6-OHDA rodent model of PD", "details": "cited from earlier work"}, "[6]": {"target": "human mGlu4 receptor (Homo sapiens (Human), UniProt Q14833)", "sequence (Q14833 33-912)": "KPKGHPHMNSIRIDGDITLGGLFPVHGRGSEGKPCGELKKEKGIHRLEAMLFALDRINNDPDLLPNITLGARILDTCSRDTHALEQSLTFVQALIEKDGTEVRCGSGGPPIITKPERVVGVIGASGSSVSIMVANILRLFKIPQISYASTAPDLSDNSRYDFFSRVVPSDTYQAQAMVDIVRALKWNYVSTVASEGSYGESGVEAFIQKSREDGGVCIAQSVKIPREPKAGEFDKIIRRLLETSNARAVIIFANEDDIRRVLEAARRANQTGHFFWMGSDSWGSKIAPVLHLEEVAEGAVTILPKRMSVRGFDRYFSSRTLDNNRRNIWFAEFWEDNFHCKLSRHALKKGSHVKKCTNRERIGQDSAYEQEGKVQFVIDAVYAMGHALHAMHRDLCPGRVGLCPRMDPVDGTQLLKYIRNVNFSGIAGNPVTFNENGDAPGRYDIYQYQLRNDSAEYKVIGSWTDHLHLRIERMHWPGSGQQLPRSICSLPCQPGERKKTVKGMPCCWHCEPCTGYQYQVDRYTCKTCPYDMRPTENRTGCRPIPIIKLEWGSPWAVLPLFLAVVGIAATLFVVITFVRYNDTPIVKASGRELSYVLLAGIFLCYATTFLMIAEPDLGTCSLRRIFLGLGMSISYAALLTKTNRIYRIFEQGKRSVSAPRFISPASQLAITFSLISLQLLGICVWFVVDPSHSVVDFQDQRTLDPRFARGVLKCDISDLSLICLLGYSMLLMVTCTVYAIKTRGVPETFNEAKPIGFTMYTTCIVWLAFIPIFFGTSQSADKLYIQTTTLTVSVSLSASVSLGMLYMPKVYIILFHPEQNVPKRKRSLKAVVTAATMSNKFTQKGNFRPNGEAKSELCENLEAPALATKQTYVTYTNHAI", "assay": "Ca2+ mobilization in vitro assay on recombinant human mGlu4 expressed in HEK293 cells (mGlu4 PAM)", "assay_type": "cell-based", "details": "for EC50: HEK293 cells stably expressing human mGlu4, L-AP4 added at EC20, read-out: EC50 (nM) mGlu4PAM; for Eff. (%): maximal response in % of the maximal stimulatory effect obtained with saturating concentrations of L-AP4", "outline": "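HEK293 cells stably expressing human mGlu4 at low level, loaded with Fluo-4AM, pre-incubated 10–30 min at 37° C with 11 half-log compound dilutions, then challenged with L-AP4 at EC20. Peak fluorescence over basal, normalized to saturating L-AP4, fitted to a four-parameter curve for EC50 and % Emax.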"}}, "data": [{"smiles": "O=C(Nc1ccccc1)C12CC1/C(=N\\O)c1ccccc1O2", "note": "(single isomer, unassigned; (-)) [(−)-PHCCC]", "values": [{"measurement": "nigrostriatal degeneration", "setting": "[1]", "result": "reduced nigrostriatal degeneration"}]}, {"smiles": "Cc1ccnc(Nc2nc(-c3cn[nH]c3)c(C)s2)n1", "note": "[ADX88178]", "values": [{"measurement": "activity in EPM", "setting": "[2]", "result": "active"}, {"measurement": "profile in rat EPM test", "setting": "[3]; rat, after oral dosing", "result": "anxiolytic-like profile"}, {"measurement": "activity in EPM", "setting": "[3]; rats, preclinical model of anxiety", "result": "active"}, {"measurement": "activity in marble burying test", "setting": "[4]", "result": "active"}]}, {"smiles": "N[C@@H](CCP(=O)(O)O)C(=O)O", "note": "[L-AP4, (2S)-2-amino-4-phosphonobutanoic acid]", "values": [{"measurement": "neuroprotection", "setting": "[5]", "result": "neuroprotective effects"}]}, {"smiles": "Cn1ncc2c(=O)n(-c3c(F)cc(C#Cc4ccccc4)cc3F)c(=O)n(C)c21", "note": "[Example 63, 5-[2,6-Difluoro-4-(2-phenylethynyl)phenyl]-1,7-dimethyl-pyrazolo[3,4-d]pyrimidine-4,6-dione]", "values": [{"measurement": "EC50", "setting": "[6]", "result": 26, "unit": "nM"}, {"measurement": "Eff. (%)", "setting": "[6]", "result": 146, "unit": "%"}]}, {"smiles": "Cn1c(=O)n(-c2ccc(C#Cc3ccccc3)cc2Cl)c(=O)c2sc(N3CCOCC3)nc21", "note": "[Example 51, 6-[2-Chloro-4-(2-phenylethynyl)phenyl]-4-methyl-2-morpholino-thiazolo[4,5-d]pyrimidine-5,7-dione]", "values": [{"measurement": "EC50", "setting": "[6]", "result": 164, "unit": "nM"}, {"measurement": "Eff. (%)", "setting": "[6]", "result": 127, "unit": "%"}]}, {"smiles": "Cc1cccc2c(=O)n(-c3ncc(C#Cc4ccccc4)cc3Cl)c(=O)n(C)c12", "note": "[Example 46, 3-[3-Chloro-5-(2-phenylethynyl)-2-pyridyl]-1,8-dimethyl-quinazoline-2,4-dione]", "values": [{"measurement": "EC50", "setting": "[6]", "result": 141, "unit": "nM"}, {"measurement": "Eff. (%)", "setting": "[6]", "result": 113, "unit": "%"}]}]}
